Several values for one entry are separate records, joined by “and”; a condition that tells them apart may be missing. Identical values can stand only once.
Biological target: T1, canine TRPM8 (Canis lupus familiaris, UniProt Q1A7N1)
T1 construct: expressed in transfected cells
Assay: In Vitro Canine TRPM8 Functional Assay (Ca2+-sensitive fluorescent dye, icilin activation, FLIPR/FDSS)
Assay type: cell-based
Conditions: HEK293 cells stably expressing canine TRPM8, icilin activation; for IC50: eight-point dose-response; for % I (0.5 μM): compound at 0.5 μM; for % I (1 μM): compound at 1 μM
Method: The functional activity of compounds of Formula (I) was determined by measuring changes in intracellular calcium concentration using a Ca^2+-sensitive fluorescent dye. The changes in fluorescent signal were monitored by a fluorescence plate reader, either a FLIPR™ (Molecular Devices) or FDSS (Hamamatsu).
HEK293 cells stably expressing canine TRPM8 were routinely grown as monolayers in Dulbecco's minimum essential medium supplemented with 10% FBS, 1 mM L-glutamine, 100 units/mL penicillin, 100 ug/mL streptomycin and 400 μg/mL G418. Cells were maintained in 5% CO2 at 37° C. At 24 hrs prior to assay, cells were seeded in clear-base poly-D-lysine coated 384-well plates (BD Biosciences, NJ, USA) at a density of 5,000 cells per well in culture medium and grown overnight in 5% CO2 at 37° C. On assay day, growth media was removed and cells were loaded with Calcium 3 Dye (Molecular Devices) for 35 min at 37° C., under 5% CO2 and then for 25 min at room temperature and atmosphere. Subsequently, cells were tested for agonist-induced increases in intracellular Ca^2+ levels using FLIPR™ or FDSS. Cells were challenged with a compound of Formula (I) (at varying concentrations) and intracellular Ca^2+ was measured for 5 min prior to the addition of icilin to all wells to achieve a final concentration which produces approximately an 80% maximal response.
Basal FI was subtracted prior to normalizing data to percent of maximal response. Curves were generated using the average of quadruplicate wells for each data point, were analyzed using nonlinear regression of either sigmoidal dose response or sigmoidal dose response (variable slope). Finally, the EC50 and IC50 values were calculated with the best-fit dose curve determined by GraphPad Prism.

T1 sequence (Q1A7N1 1-1104): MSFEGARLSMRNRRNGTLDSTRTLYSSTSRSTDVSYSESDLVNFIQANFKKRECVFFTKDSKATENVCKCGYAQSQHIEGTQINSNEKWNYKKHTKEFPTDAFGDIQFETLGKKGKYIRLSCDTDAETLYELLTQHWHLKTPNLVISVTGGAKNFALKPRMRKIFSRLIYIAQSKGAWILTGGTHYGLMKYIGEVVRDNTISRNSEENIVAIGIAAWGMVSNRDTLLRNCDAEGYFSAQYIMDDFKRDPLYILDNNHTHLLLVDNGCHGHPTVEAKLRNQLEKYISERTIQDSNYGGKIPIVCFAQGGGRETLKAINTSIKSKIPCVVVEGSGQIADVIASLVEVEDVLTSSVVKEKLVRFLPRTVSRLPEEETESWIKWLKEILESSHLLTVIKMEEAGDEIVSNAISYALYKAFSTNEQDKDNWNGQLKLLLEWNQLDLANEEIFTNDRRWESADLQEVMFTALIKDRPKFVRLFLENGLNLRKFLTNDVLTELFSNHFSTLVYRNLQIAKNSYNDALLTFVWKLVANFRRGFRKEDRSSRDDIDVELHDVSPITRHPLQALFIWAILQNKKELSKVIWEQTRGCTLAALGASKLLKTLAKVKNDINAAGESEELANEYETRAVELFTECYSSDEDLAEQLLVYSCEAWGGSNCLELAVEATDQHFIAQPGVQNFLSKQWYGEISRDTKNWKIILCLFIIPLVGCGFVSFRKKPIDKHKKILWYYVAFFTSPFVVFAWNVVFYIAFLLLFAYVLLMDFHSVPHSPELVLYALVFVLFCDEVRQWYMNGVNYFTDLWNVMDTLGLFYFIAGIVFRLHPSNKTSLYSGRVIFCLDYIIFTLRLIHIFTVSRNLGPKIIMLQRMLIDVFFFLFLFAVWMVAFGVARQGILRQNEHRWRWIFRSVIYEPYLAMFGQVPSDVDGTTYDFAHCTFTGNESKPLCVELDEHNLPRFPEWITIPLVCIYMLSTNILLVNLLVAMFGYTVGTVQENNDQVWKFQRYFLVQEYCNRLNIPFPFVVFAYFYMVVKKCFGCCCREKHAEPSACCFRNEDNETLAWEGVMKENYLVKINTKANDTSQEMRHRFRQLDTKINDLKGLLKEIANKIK

Row | SMILES | IC50 | % I (0.5 μM) | % I (1 μM) | % I (5 μM) (compound at 5 μM) [%]
1 | CCOP(=O)(OCC)C(Cc1ccc(F)c(F)c1)c1sc2ccccc2c1-c1ccc(F)cc1 (stereo not shown) [Cpd 220] | 207 nM | 101% |  | 
2 | CCOP(=O)(OCC)C(Cc1cc(Cl)ccc1F)c1sc2ccccc2c1Cl (stereo not shown) [Cpd 305] | 70 nM | 102% |  | 
3 | CCOP(=O)(OCC)C(Cc1cc(C(F)(F)F)ccc1F)c1sc2ccccc2c1Cl (stereo not shown) [Cpd 286] | 127 nM | 102% |  | 
4 | COc1ccc(CC(c2sc3ccccc3c2Br)P(=O)(OC(C)C)OC(C)C)c(F)c1 (stereo not shown) [Cpd 163] | 20 nM | 103% |  | 
5 | CCOP(=O)(OCC)C(Cc1ccccc1C)c1sc2ccccc2c1C (racemic) [Cpd 26] | 108 nM |  | 100% | 
6 | COc1cc(CC(c2sc3ccccc3c2Br)P(=O)(OC(C)C)OC(C)C)ccc1F (stereo not shown) [Cpd 157] |  | 103% |  | 
7 | CCOP(=O)(OCC)C(Cc1ccc(F)c(F)c1)c1sc2cccc(F)c2c1Br (stereo not shown) [Cpd 224] | 44 nM | 102% |  | 
8 | CCOP(=O)(OCC)C(Cc1cc(C(F)(F)F)cc(C(F)(F)F)c1)c1sc2ccccc2c1Cl (stereo not shown) [Cpd 282] | 235 nM | 100% |  | 
9 | CCOP(=O)(OCC)C(Cc1ccc(SC(F)(F)F)cc1)c1sc2ccccc2c1Cl (stereo not shown) [Cpd 283] | 125 nM | 103% |  | 
10 | CCOP(=O)(OCC)C(Cc1cccc(C(F)(F)F)c1Cl)c1sc2ccccc2c1Cl (stereo not shown) [Cpd 280] | 227 nM | 101% |  | 
11 | CCOP(=O)(OCC)C(Cc1ccc(F)c(Cl)c1)c1sc2ccccc2c1Cl (stereo not shown) [Cpd 297] | 40 nM | 103% |  | 
12 | CC(C)OP(=O)(OC(C)C)C(Cc1ccc(F)c(F)c1)c1sc2ncccc2c1Br (stereo not shown) [Cpd 207] | 51 nM | 99% |  | 
13 | CCOP(=O)(Cc1cc2ccccc2s1)OCc1ccccc1Cl (stereo not shown) [Cpd 105] | 1010 nM |  | 48% | 100
14 | CCOP(=O)(OCC)C(Cc1ccc(C(F)(F)F)c(F)c1)c1sc2ccccc2c1Br (stereo not shown) [Cpd 144] | 58 nM | 101% |  | 
15 | CCOP(=O)(OCC)C(Cc1ccc(Cl)c(Cl)c1)c1cc2ccccc2s1 (stereo not shown) [Cpd 78, [1-Benzo[b]thiophen-2-yl-2-(3,4-dichloro-phenyl)-ethyl]-phosphonic acid diethyl ester] |  |  | 95% | 
16 | Cc1c(C(Cc2ccc(F)c(F)c2)P(=O)(OC(C)C)OC(C)C)oc2ccccc12 (racemic) [Cpd 11] | 43 nM and 47 nM |  | 99% and 103% | 
17 | CCOP(=O)(OCC)C(Cc1cccc(Cl)c1Cl)c1sc2ccccc2c1C (racemic) [Cpd 35] | 125 nM |  | 100% | 
18 | CCOP(=O)(OCC)C(Cc1ccc(F)c(C(F)(F)F)c1)c1sc2ccccc2c1Cl (stereo not shown) [Cpd 294] | 118 nM | 103% |  | 
19 | CCOP(=O)(OCC)C(Cc1cccc(SC(F)(F)F)c1)c1sc2ccccc2c1Cl (stereo not shown) [Cpd 296] | 137 nM | 102% |  | 
20 | CCOP(=O)(OCC)C(Cc1ccc(F)cc1C(F)(F)F)c1sc2ccccc2c1Br (stereo not shown) [Cpd 245] | 124 nM | 103% |  | 
21 | CCOP(=O)(OCC)C(Cc1ccc2ccccc2c1)c1sc2ccccc2c1C (racemic) [Cpd 46] | 167 nM |  | 99% | 
22 | COc1ccc(CC(c2sc3ccccc3c2Br)P(=O)(OC(C)C)OC(C)C)cc1F (stereo not shown) [Cpd 159] | 36 nM | 103% |  | 
23 | COc1cc(CC(c2sc3ccccc3c2Br)P(=O)(OC(C)C)OC(C)C)c(F)cc1Cl (stereo not shown) [Cpd 165] | 86 nM | 102% |  | 

Row | SMILES | IC50 | % I (0.5 μM) | % I (1 μM) | % I (5 μM) (compound at 5 μM) [%]
24 | CCOP(=O)(OCC)C(Cc1ccc(S(=O)(=O)C(F)(F)F)cc1)c1sc2ccccc2c1Cl (stereo not shown) [Cpd 300] | 89 nM | 103% |  | 
25 | CCOP(=O)(OCC)C(Cc1cc(Cl)ccc1F)c1sc2ccccc2c1Br (stereo not shown) [Cpd 307] | 26 nM | 103% |  | 
26 | CCOP(=O)(OCC)C(Cc1ccc(F)c(F)c1)c1sc2ccccc2c1-c1cccc(C(N)=O)c1 (stereo not shown) [Cpd 218] | 483 nM | 79% |  | 
27 | CC(C)OP(=O)(OC(C)C)C(Cc1cc(O)c(Cl)cc1F)c1sc2ccccc2c1Br (stereo not shown) [Cpd 232] | 63 nM | 99% |  | 
28 | CC(C)OP(=O)(OC(C)C)C(Cc1ccc(Cl)cc1)c1sc2ccccc2c1Br (stereo not shown) [Cpd 288] | 65 nM | 103% |  | 
29 | CCOP(=O)(OCC)C(Cc1ccc(F)c(F)c1)c1sc2cccc(F)c2c1C (stereo not shown) [Cpd 3, [2-(3,4-Difluoro-phenyl)-1-(4-fluoro-3-methyl-benzo[b]-thiophene-2-yl)-ethyl]-phosphonic acid diethyl ester] |  |  | 100% | 
30 | CCOP(=O)(OCC)C(Cc1ccc(F)c(O)c1)c1sc2ccccc2c1Br (stereo not shown) [Cpd 225, [1-(3-Bromo-benzo[b]thiophen-2-yl)-2-(4-fluoro-3-hydroxy-phenyl)-ethyl]-phosphonic acid diethyl ester] |  | 103% |  | 
31 | CCOP(=O)(OCC)C(Cc1cccc([N+](=O)[O-])c1)c1sc2ccccc2c1Br (stereo not shown) [Cpd 315] |  | 103% |  | 
32 | CCOP(=O)(OCC)C(Cc1ccc(F)c(OC)c1)c1sc2ccccc2c1Br (stereo not shown) [Cpd 156] |  | 103% |  | 
33 | CCOP(=O)(OCC)C(Cc1ccccc1Cl)c1sc2ccccc2c1Br (stereo not shown) [Cpd 147] | 125 nM | 103% |  | 
34 | CCOP(=O)(OCC)C(Cc1ccc(Cl)c(C(F)(F)F)c1)c1sc2ccccc2c1Cl (stereo not shown) [Cpd 287] | 124 nM | 103% |  | 
35 | CCOP(=O)(Cc1cc2ccccc2s1)OCc1ccccc1C (stereo not shown) [Cpd 104, Benzo[b]thiophen-2-ylmethyl-phosphonic acid ethyl ester 2-methyl-benzyl ester] |  |  | 53% | 
36 | CCOP(=O)(OCC)C(Cc1cccc(OC(F)(F)F)c1)c1sc2ccccc2c1Br (stereo not shown) [Cpd 145] | 119 nM and 116 nM | 103, % and 102% |  | 
37 | CCOP(=O)(OCC)C(Cc1cccc(C(F)(F)F)c1F)c1sc2ccccc2c1C (racemic) [Cpd 37] | 127 nM |  | 100% | 
38 | CC(C)OP(=O)(OC(C)C)C(Cc1cc(C(F)(F)F)cc(C(F)(F)F)c1)c1sc2ccccc2c1Cl (stereo not shown) [Cpd 171] | 221 nM | 95% |  | 
39 | CCOP(=O)(OCC)C(Cc1ccc(Cl)c(Cl)c1)c1sc2ccccc2c1Br (stereo not shown) [Cpd 24, [1-(3-Bromo-benzo[b]thiophen-2-yl)-2-(3,4-dichloro-phenyl)-ethyl]-phosphonic acid diethyl ester] |  |  | 100% | 
40 | CCOP(=O)(OCC)C(Cc1ccc(OC)c(C(F)(F)F)c1)c1sc2ccccc2c1Cl (stereo not shown) [Cpd 292] | 216 nM | 99% |  | 
41 | CCOP(=O)(OCC)C(Cc1ccc(SC)cc1)c1sc2ccccc2c1Br (stereo not shown) [Cpd 247] | 121 nM | 103% |  | 
42 | CCOP(=O)(OCC)C(Cc1ccc(F)c(F)c1)c1sc2ccccc2c1-c1ccccc1O (stereo not shown) [Cpd 215] | 85 nM | 101% |  | 
43 | CCOP(=O)(OCC)C(Cc1c(F)c(F)c(O)c(F)c1F)c1sc2ccccc2c1Br (stereo not shown) [Cpd 228] | 129 nM | 94% |  | 
44 | CCOP(=O)(OCC)C(Cc1ccc(F)c(F)c1)c1sc2cccc(Cl)c2c1C (stereo not shown) [Cpd 65, [1-(4-Chloro-3-methyl-benzo[b]thiophen-2-yl)-2-(3,4-difluoro-phenyl)-ethyl]-phosphonic acid diethyl ester] |  |  | 100% | 
45 | CC(=O)OCCOP(=O)(OCCOC(C)=O)C(Cc1ccc(F)c(F)c1)c1sc2ccccc2c1Br (stereo not shown) [Cpd 213] | 202 nM | 100% |  | 
